Results reported in patent US4980349A, “Sulphonamides derived from diarylmethanes, the processes for preparing them and pharmaceutical compositions containing them” (SANOFI, priority 1986, dated 1990).

Assays:
[1] = system: rat hind foot kaolin-induced arthritis; test: Kaolin-induced arthritis test, second experiment, acute phase (volume of the foot at the 8th hour); format: in vivo; details: po, 8 h, Table IXa; for change in vivo at 25 mg/kg / change in vivo at 50 mg/kg / change in vivo at 100 mg/kg: 8th hour, read-out: percentage significant decrease in the volume of the treated foot; for ED50: foot volume, read-out: 50% active dose
Procedure: (§1) The […] of 0.05 ml of a sterile 10% strength suspension of kaolin into the metatarsal flexor sheath of the hind foot of a rat initially induces an oedematous reaction. An inflammatory arthritis then forms.
The early oedematous reaction appears from the first hour, and reaches its maximum between the fourth hour and the sixth hour. This is the manifestation of interest. The assessment of the volume of the foot enables the action of substances on the oedematous reaction to be studied. The measurements are carried out using a Giono and Chevilard plethysmometer.
(§2) The test products are administered orally (stomach tube) one hour before the injection of the kaolin.
(§3) In a second experiment, a more elaborate study was performed in order to ascertain the effect of the products, on the one hand on the acute phase of the inflammatory reaction (measured by the volume of the foot at the 8th hour), and on the other hand on the chronic phase (activity measured by the weight of the foot at the 12th hour).
As in the previous experiment, ketoprofen was used as the comparative product:
The results are expressed as a percentage significant decrease in the volume of the treated foot compared with the controls.

prostacyclin synthetase = test: PGI2 production in human glomeruli (renal preparation model); format: cell-based; details: arachidonic acid 5 ug/ml
Procedure: (§4) Human glomeruli synthesize both thromboxanes, via thromboxane synthetase, and prostaglandins, via prostacyclin synthetase. The experiment consists in stimulating glomerular cells with arachidonic acid (5 ug/ml) and in assaying radioimmunologically the amount of thromboxane B2 (TXB2) and prostacyclin (PGI2) produced in the presence of increasing concentrations of test products (10^-6 M to 5×10^-5 M).
(§5) As for the previous model, the results are expressed as IC50 in comparison with a control suspension.

[2] = system: foreign-body (sponge) granuloma in rats; test: Experimental granuloma induced by foreign body, weight of the granulomas; format: in vivo, Wistar rats; details: Rattus norvegicus, po, 240 h, 10 days after implantation, Table XIb, read-out: decrease in the weight of the granulomas
Procedure: This test consists in studying the subacute cellular phase which is developed in the 8 days which follow the implantation of a foreign body, a sponge of non-resorbable plastic, in the dorsal subcutaneous connective tissue in rats.
The animals used are Wistar rats weighing 120-140 g and of the same origin, maintained under the same conditions of housing throughout the treatment (8 days).
The compounds of the invention are administered orally, in a gum suspension, in the morning in a fasted state, using an oesophageal tube.
In this experiment, on the one hand a histological study of the granulomas is performed by sampling on day 8 (results recorded in Table XIa), and on the other hand a study of the weight of the granulomas was performed 10 days after the implantation (results recorded in Table XIb).

5-lipoxygenase = test: Production of LTB4 and 5-HETE by human leukocytes incubated with arachidonic acid; format: cell-based; details: ionophore A 23187 5 μM, arachidonic acid 10 μg/ml
Procedure: Human polymorphonuclear leukocytes suspended with arachidonic acid and stimulated by calcium ionophore produce leukotrienes B4 (LTB4).
The test consists in incubating fresh human leukocytes with arachidonic acid at a dose of 10 μg/ml to which a tracer dose of tritium-labelled arachidonic acid has been added. The leukocytes are stimulated with calcium ionophore A 23187 (Calbiochem, 5 μM) and the amount of 5-hydroxyeicosatetraenoic acid (5-HETE) and LTB4 produced is then assayed by HPLC.
5-HETE is the metabolite produced from arachidonic acid by 5-lipoxygenase, and from which LTB4 is produced by the action of an isomerase.
The results are expressed as an integration of the surface of the peak obtained in HPLC by comparison with that obtained with control leukocytes which have not been incubated with the test products.
The results in brackets are expressed as a percentage inhibition of the production of 5-HETE and LTB4.

thromboxane synthetase = test: TXB2 production in human glomeruli (renal preparation model); format: cell-based; details: arachidonic acid 5 ug/ml
Procedure: as §4, §5

[3] = system: rat hind foot kaolin-induced arthritis; test: Kaolin-induced arthritis test, second experiment, chronic phase (weight of the foot at the 12th hour); format: in vivo; details: po, 12 h, Table IXb; for change in vivo at 25 mg/kg / change in vivo at 50 mg/kg / change in vivo at 100 mg/kg: 12th hour, read-out: percentage significant decrease in the weight of the treated foot; for ED50: foot weight, read-out: 50% active dose
Procedure: as §1, §2, §3
As in the previous experiment, ketoprofen was used as the comparative product: […]

Oral LD50 in rats = details: rat, in vivo, male Wistar rats, 200-400 g, 14 days observation, read-out: approximate oral LD50
Procedure: (§6) The compounds were suspended in a 3% strength solution of gum arabic so as to supply, in a volume of 2 ml for the rats, the equivalent of 50, 100, 200, 400 and 800 mg/kg, and, in a volume of 1 ml for the mice, 100, 200, 400, 800 and 1,600 mg/kg and, for 1573 and 1579, 3,200 mg/kg.
(§7) Gavage was performed by means of a metal tube, on batches of 5 animals for each series.
(§8) The animals were observed daily for 14 days.

Oral LD50 in mice = details: mouse, in vivo, female Swiss CF mice, 20 g, 14 days observation, read-out: approximate oral LD50
Procedure: as §6, §7, §8

[4] = system: rat hind foot kaolin-induced oedema; test: Kaolin-induced arthritis test, first experiment (decrease in inflammation, foot volume); format: in vivo; details: 1 h before kaolin, Table IX, read-out: percentage decrease in the inflammation
In short: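 Kaolin (0.05 ml of sterile 10% suspension) injected into metatarsal flexor sheath of rat hind foot; compounds given orally by stomach tube 1 h before. Foot volume measured by plethysmometer during early oedema (maximal 4–6 h). Value is % decrease in inflammation versus controls, mean of 10 animals per dose.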

Structure (SMILES)	change in vivo at 25 mg/kg [1] [%]	change in vivo at 50 mg/kg [1] [%]	change in vivo at 100 mg/kg [1] [%]	ED50 [1] [mg/kg]	IC50 (prostacyclin synthetase) [µM]	change in vivo at 25 mg/kg [2] [%]	change in vivo at 50 mg/kg [2] [%]	change in vivo at 100 mg/kg [2] [%]	5-HETE, integration of the surface of the HPLC peak (5-lipoxygenase)	IC50 (thromboxane synthetase) [µM]	change in vivo at 25 mg/kg [3] [%]	change in vivo at 50 mg/kg [3] [%]	change in vivo at 100 mg/kg [3] [%]	ED50 [3] [mg/kg]	LD50 at 336 h (Oral LD50 in mice) [mg/kg]	further results
O=C(O)CCCCCCCCCCNS(=O)(=O)c1ccc(Cl)cc1C(O)c1ccccc1Cl (stereo not shown) [Compound 1796]	-50 ± 5	-55 ± 5	-60 ± 5	25	50	-50	-55	-60	127	3.2	-50 ± 5	-52 ± 5	-58 ± 5	25		LTB4, integration of the surface of the HPLC peak (5-lipoxygenase): 152
O=C(O)CCCCCCCCCCNS(=O)(=O)c1ccc(Cl)cc1C(=O)c1ccccc1 [Compound 1572, 11-(2-benzoyl-4-chlorobenzenesulphonamido)undecanoic acid]					100					7					> 1600	LD50 at 336 h (Oral LD50 in rats): > 800 mg/kg; change in vivo at 25 mg/kg ([4]; 25 mg/kg oral): -17%; change in vivo at 50 mg/kg ([4]; 50 mg/kg oral): -26%; change in vivo at 100 mg/kg ([4]; 100 mg/kg oral): -50%
O=C(O)CCCCCCCCCCCNS(=O)(=O)c1ccc(Cl)c(C(=O)c2ccccc2)c1 [Compound 1736, 12-(3-benzoyl-4-chlorobenzenesulphonamido)dodecanoic acid]		-50 ± 5	-55 ± 5	50	> 50	-48	-52	-55	384	2.6	-45 ± 5	-55 ± 5	-58 ± 5	50		percentage inhibition of the production of 5-HETE (in brackets) (5-lipoxygenase): 89.6%; percentage inhibition of the production of LTB4 (in brackets) (5-lipoxygenase): 100%
O=C(O)CCCCCCCCCCNS(=O)(=O)c1ccc(Cl)cc1C(=O)c1ccccc1Cl [Compound 1574, 11-[2-(2-chlorobenzoyl)-4-chlorobenzenesulphonamido]undecanoic acid]	-60 ± 6	-65 ± 6	-68 ± 5	25	100	-48	-50	-55		5	-58 ± 5	-60 ± 5	-60 ± 5	25	> 1600	
O=C(O)CCCCCCCCCCNS(=O)(=O)c1ccc(Cl)cc1Cc1ccccc1Cl [Compound 1797]	-50 ± 5	-55 ± 5	-60 ± 5	25	> 50	-50	-55	-60		4.4	-50 ± 5	-58 ± 5	-60 ± 5	25		
